Reference: publication PMC8495455, “Discovery of a transdermally deliverable pentapeptide for activating AdipoR1 to promote hair growth” (EMBO Molecular Medicine, 2021)

Assays:
PDGFA mRNA = assay: qRT-PCR growth factor gene expression in DP cells, PDGFA; assay type: cell-based, human; conditions: for mRNA_PDGFA: DP cells
Source text: (§1) Next, we investigated the downstream effects of P5 on hair growth factor genes and proteins in DP cells. […] We tested whether P5 can also increase the mRNA levels and proteins of hair growth factors in DP cells: IGF‐1, VEGF, HGF, platelet‐derived growth factor alpha (PDGFA), and fibroblast growth factor (FGF) 7, which are known to induce or maintain the anagen phase of the hair cycle (Jindo et al, [1994]; Philpott et al, [1994]; Yano et al, [2001]; Jang, [2005]; Tomita et al, [2006]; Iino et al, [2007]).
Total RNA was isolated from P5‐treated DP cells using RNAiso Plus (#9109; TaKaRa). We used the total RNA (1 µg) for cDNA synthesis using a RevertAid First Strand cDNA Synthesis Kit (Thermo Fisher) according to the manufacturer's instructions. The mRNA expression levels were quantified on a 7500 Real‐time PCR System (Thermo Fisher) using TB Green Premix Ex Taq (TaKaRa Bio): human IGF‐1, VEGF, HGF, PDGFA, FGF7, and glyceraldehyde 3‐phosphate dehydrogenase (GAPDH) (Appendix Table S2). The relative expression levels of each gene were determined by the 2^‐ΔΔCT method.

IGF-1 protein = assay: Growth factor protein quantitation in DP cell medium, IGF-1; assay type: cell-based, human; conditions: for protein_IGF1: DP cell medium
Source text: as §1
Human DP cells were grown on a 100‐mm cell culture dish to 100% confluency. After washed by PBS three times, the cells were cultured with serum‐free DMEM and treated with P5. After 48 h, the medium was collected and filtered by a […]. The filtrate was then concentrated using a centrifugal concentrator (Vivaspin 6, 10‐kDa molecular weight cutoff, centrifuged 2,600 g at 4°C for 13 min, Sartorius Stedim Biotech). The signals of each protein in the concentrated media were detected and quantified, based on the enzyme‐linked immunosorbent assay (Human Cytokine Antibody Array C2000, RayBiotech).

human scalp HFs = assay: Ex vivo human HF organ culture, hair shaft elongation; assay type: cell-based; conditions: 6 days, vs vehicle
Experimental: We next investigated whether P5 can reproduce the effects of APN on hair growth promotion ex vivo (Won et al, [2012]) using ex vivo human HF organ culture model. […] The Ki‐67‐positive cell portion of the matrix area in the P5‐treated HFs was higher than that in the vehicle‐treated group (Fig 3E).
The microdissected full‐length scalp HFs in anagen VI were cut at the level of sebaceous duct and then ex vivo cultured for 6 days at 37°C in a 5% CO2 atmosphere in Williams E medium (#12551032, Gibco) supplemented with hydrocortisone (10 ng/ml), insulin (10 µg/ml), L‐glutamine (2 mM), and penicillin‐streptomycin solution (1×). To avoid any potential bias in the length measurement from pseudo‐catagen progression, the total length of pigmented hair shaft of each HF was measured every three days to calculate the net length of elongated hair shaft and photographed in culture day 6 using a stereomicroscope (Olympus).

C57BL/6 (WT) mice = assay: Mouse hair cycle modulation, histology and anagen induction score, WT mice; assay type: in vivo
Source text: First, we topically applied P5 and minoxidil as a positive control (Messenger & Rundegren, [2004]) on wildtype (WT) mouse. […] Overall, the hair cycle score was higher in the P5‐treated mice than vehicle‐treated mice (Fig 4B). […] Collectively, P5 induces anagen hair cycle in vivo.
Paraffin‐embedded mouse cutaneous back tissue was sectioned (4 μm thickness) and stained with hematoxylin and eosin. For IF staining, human ORS cells cultured in FiTC‐P5, sectioned paraffin‐embedded human HFs (7 μm thickness), and sectioned paraffin‐embedded mouse cutaneous dorsal tissue or human skin tissue (5 μm thickness) were incubated at 4°C overnight with the following primary antibodies diluted in the diluent reagent (Invitrogen): phospho‐AMPK (#2535, 1:100; Cell Signaling), Ki‐67 (#M7240, 1:200; Dako), versican (#ab177480, 1:200; Abcam), or AdipoR1 antibody (#ab126611, 1:200; Abcam). After three washes with PBS, the slides were incubated with the secondary Alexa Fluor 488‐labeled anti‐mouse or rabbit IgG antibody (#ab150077, #ab150113, 1:200; Invitrogen), or Alexa Fluor 594‐labeled anti‐rabbit IgG antibody (#a11012, 1:200; Invitrogen) at 25°C for 1 h. Nuclei were counterstained with 4′,6‐diamidino‐2‐phenylindole (DAPI; #D1306, 1:1,000; Invitrogen). Microscopic observations were performed with a Nikon Eclipse Ci‐L microscope (Nikon). IF intensity was observed and recorded with a Nikon Eclipse Ni‐E fluorescence microscope (Nikon).
For the hair cycle modulation experiment, Adipoq ^−/− (stock #008195; JAX) (Ma et al, [2002]), Adipor1 ^−/− (Yamauchi et al, [2007]; Okada‐Iwabu et al, [2013]), or C57BL/6 (KOATECH) female mice was used (Müller‐Röver et al, [2001]). They were housed (up to four animals per cage; 23 ± 2°C, 8:00–20:00, 12 h/12 h light/dark cycle). Mice were fed a standard chow diet and provided food and water ad libitum. Mice were randomly allocated and shaved dorsally at 7.5 weeks of age. Only mice in telogen were included for the further experiments (Müller‐Röver et al, [2001]). From 8 weeks of age, the shaved dorsal area was treated with vehicle control (ethanol and polyethylene glycol, 30% and 70% v/v), P5 (0.1 mM), or minoxidil (3%) every day. The mouse hair growth score (a value from 0 to 100 based on the skin pigmentation and hair shaft density) was monitored and documented at designated days with the experimenters being blind to the conditions, following a previous study (Chai et al, [2019]). A higher score corresponds to a transition from telogen to anagen. On day 35, we obtained dorsal cutaneous tissue for histological analysis: anagen induction scores (calculated using an assigned arbitrary score; telogen = 1, anagen I–VI = 2–7) (Müller‐Röver et al, [2001]).

[1] = P5 5μM, relative to Control = 1, replicate 1
[2] = P5 5μM, relative to Control = 1, replicate 2
[3] = P5 5μM, relative to Control = 1, replicate 3
[4] = P5 25μM, relative to Control = 1, replicate 1
[5] = P5 25μM, relative to Control = 1, replicate 2
[6] = P5 25μM, relative to Control = 1, replicate 3

GLYYF [P5, GST-fused (GST-P5) in pulldown assays]
mRNA_PDGFA (PDGFA mRNA; [1]): 1.237 | mRNA_PDGFA (PDGFA mRNA; [2]): 1.013 | mRNA_PDGFA (PDGFA mRNA; [3]): 1.221 | mRNA_PDGFA (PDGFA mRNA; P5 5μM, relative to Control = 1, replicate 4): 1.252 | mRNA_PDGFA (PDGFA mRNA; [4]): 1.5777 | mRNA_PDGFA (PDGFA mRNA; [5]): 1.8805 | mRNA_PDGFA (PDGFA mRNA; [6]): 1.22 | mRNA_PDGFA (PDGFA mRNA; P5 25μM, relative to Control = 1, replicate 4): 1.95 | PDGFA mRNA expression (PDGFA mRNA; P5-treated DP cells, n = 4): significantly increased | protein_IGF1 (IGF-1 protein; [1]): 0.9827 | protein_IGF1 (IGF-1 protein; [2]): 1.413 | protein_IGF1 (IGF-1 protein; [3]): 2.07 | protein_IGF1 (IGF-1 protein; [4]): 1.764 | protein_IGF1 (IGF-1 protein; [5]): 4.926 | protein_IGF1 (IGF-1 protein; [6]): 5.716 | IGF-1 protein expression level (IGF-1 protein; P5-treated DP cells, 48 h medium, n = 3): elevated | Hair shaft growth ex vivo (human scalp HFs): significantly promoted hair shaft growth ex vivo | Histological examination of HFs (C57BL/6 (WT) mice; H&E): anagen HFs were noticeable | Anagen induction scores vs vehicle (C57BL/6 (WT) mice; One-way ANOVA with Tukey's test): significantly higher
